Test results as given in patent US6362369B1, “Phthalic acid diamide derivatives fluorine-containing aniline compounds as starting material, agricultural and horticultural insecticides, and a method for application of the insecticides” (Nihon Nohyaku Co., Ltd., priority 1997, dated 2002).

Test system: diamondback moth (Plutella xylostella)
Test: Insecticidal effect on diamondback moth (Test Example 1)
Format: in vivo
Conditions: diamondback moth; judged by the criterion of Test Example 1
Procedure: Insecticidal effect on diamondback moth (Plutella xylostella) Adult diamondback moths were released and allowed to oviposit on a Chinese cabbage seedling. […] After air-drying, it was allowed to stand in a room thermostated at 25° C. Six days after the immersion, the hatched insects were counted. The mortality was calculated according to the following equation and the insecticidal effect was judged according to the criterion shown below. The test was carried out with triplicate groups of 10 insects. [table]

Compound | Insecticidal effect (Test Example 1), judged from mortality
Cc1cc(C(F)(F)C(F)(F)F)ccc1NC(=O)c1c(I)cccc1C(=O)N[C@@H](C)CO [compound 1518] | A (100)
Cc1cc2c(cc1NC(=O)c1cccc(Cl)c1C(=O)NC(C)C)OC(F)(F)O2 [compound 1661] | A (100)
Cc1cc(OC(F)F)ccc1NC(=O)c1c(I)cccc1C(=O)NC1CC1 [compound 1453] | A (100)
Cc1cc(C(F)(F)C(F)(F)F)ccc1NC(=O)c1cccc([S+]([O-])C(F)(F)F)c1C(=O)NC(C)C (centres unmarked) [compound 1804] | A (100)
Cc1cc(C(F)(F)C(F)(F)F)ccc1NC(=O)c1c(SC(F)(F)F)ccc(Cl)c1C(=O)NC(C)C [compound 1802] | A (100)

Same assay, conditions: diamondback moth; judged by the mortality criterion of Test Example 1

Compound | Insecticidal effect, Test Example 1
CC(C)NC(=O)c1cc(Cl)ccc1C(=O)Nc1cccc(Cl)c1Cl [compound 175] | A (100)
CC(C)NC(=O)c1cccc(Cl)c1C(=O)Nc1ccc(OC(F)F)c(F)c1 [compound 233] | A (100)
Cc1cc(SC(C)C)ccc1NC(=O)c1ccccc1C(=O)NC(C)C [compound 68] | A (100)
CC(C)NC(=O)c1ccccc1C(=O)Nc1cccc(SC(F)(F)F)c1 [compound 31] | A (100)
Cc1cc(C)c(NC(=O)c2cccc(Br)c2C(=O)NC(C)C)c(C)c1 [compound 265] | A (100)
Cc1cc(OC(F)F)ccc1NC(=O)c1c(C(=O)NC(C)C)ccc(Br)c1Br [compound 342] | A (100)
Cc1cc(SC(C)C)ccc1NC(=O)c1cccc(I)c1C(=O)NC(C)C [compound 402] | A (100)
CCCNC(=O)c1ccccc1C(=O)Nc1ccc(C(F)(F)F)cc1 [compound 14] | A (100)
CCCNC(=O)c1cccc(Cl)c1C(=O)Nc1ccc(OC(F)F)cc1C [compound 16] | A (100)
CC(C)NC(=O)c1ccc(Cl)cc1C(=O)Nc1ccc(OC(F)(F)F)cc1 [compound 185] | A (100)
Cc1c(NC(=O)c2cccc(Br)c2C(=O)NC(C)C)ccc(OC(F)F)c1C [compound 295] | D (79-50)
CC(C)NC(=O)c1ccccc1C(=O)Nc1ccc(SC(F)F)cc1 [compound 32] | A (100)
Cc1cc(OC(F)(F)F)ccc1NC(=O)c1ccccc1C(=O)NC(C)C [compound 59] | A (100)
CC(C)NC(=O)c1cccc(Cl)c1C(=O)Nc1cccc(Cl)c1Cl [compound 208] | A (100)
CC(C)NC(=O)c1c(Cl)cccc1C(=O)Nc1ccc(OC(F)F)cc1 [compound 92] | A (100)

Same assay, conditions: diamondback moth; mortality judged by criterion of Test Example 1

Compound | Insecticidal effect, Test Example 1
Cc1cc(C(F)(F)C(F)(F)F)ccc1NC(=O)c1c(I)cccc1C(=O)NC1CCCC1 [compound 992] | A (100)
CCN(CC)C(=O)c1cccc([N+](=O)[O-])c1C(=O)Nc1ccc(OC(F)(F)C(F)F)cc1C [compound 1137] | A (100)
Cc1cc(C(F)(F)C(F)(F)F)ccc1NC(=O)c1c(Cl)cccc1C(=O)NCCCc1ccccc1 [compound 1332] | A (100)
CCN(CC)C(=O)c1c(I)cccc1C(=O)Nc1ccc2nc(C(F)(F)C(F)(F)F)oc2c1 [compound 1182] | A (100)
Cc1cc(OC(F)F)ccc1NC(=O)c1cccc(Cl)c1C(=O)NCc1ccccc1 [compound 1421] | A (100)
Cc1ccccc1CNC(=O)c1c(I)cccc1C(=O)Nc1ccc(OC(F)F)cc1C [compound 1434] | A (100)
Cc1cc(OC(F)(F)F)ccc1NC(=O)c1cc(F)c(F)cc1C(=O)NC(C)(C)C [compound 1288] | A (100)
Cc1cc(C(F)(F)C(F)(F)F)ccc1NC(=O)c1cccc(I)c1C(=O)N1CCCCC1 [compound 1082] | A (100)
Cc1cc(C(F)(F)C(F)(F)F)ccc1NC(=O)c1cccc(Cl)c1C(=O)NCCOc1ccccc1 [compound 1374] | A (100)
CC(C)(C)NC(=O)c1c(I)cccc1C(=O)Nc1ccc2nc(C(F)(F)C(F)(F)F)oc2c1 [compound 1181] | A (100)
CCCNC(=O)c1cccc(I)c1C(=O)Nc1ccc(OC(F)(F)C(F)F)cc1C [compound 1059] | A (100)
Cc1cc(OC(F)F)ccc1NC(=O)c1c(I)cccc1C(=O)NCc1ccccc1 [compound 1431] | A (100)
Cc1cc(OC(F)(F)C(F)F)ccc1NC(=O)c1cc(I)ccc1C(=O)NC(C)C [compound 1249] | A (100)
Cc1cc(C(F)(F)C(F)(F)F)ccc1NC(=O)c1c(I)cccc1C(=O)NC(C)C(C)C (centres unmarked) [compound 1034] | A (100)
Cc1cc(C(F)(F)C(F)(F)F)ccc1NC(=O)c1cccc(Cl)c1C(=O)NCCNc1ccccc1 [compound 1376] | A (100)

Same assay, conditions: mortality judged according to the criterion shown in Test Example 1

Compound | Insecticidal effect on diamondback moth (Test Example 1), judged grade
CC(C)NC(=O)c1cccc(F)c1C(=O)Nc1ccc(Oc2ccc(C(F)(F)F)cc2Cl)cc1F [compound 902] | A (100)
Cc1cc(Cl)ccc1NC(=O)c1cccc(S(=O)(=O)C(C)C)c1C(=O)NC(C)C [compound 796] | A (100)
Cc1cc(Oc2c(F)c(F)c(F)c(F)c2F)ccc1NC(=O)c1c(F)cccc1C(=O)NC(C)C [compound 573] | A (100)
CCC(C)NC(=O)c1ccccc1C(=O)Nc1ccc(C(F)(F)F)cc1 (centres unmarked) [compound 835] | A (100)
Cc1ccc(Cl)cc1NC(=O)c1ccccc1C(=O)NCC(F)(F)F [compound 864] | A (100)
CC(C)NC(=O)c1c(C(=O)Nc2ccc(C#N)cc2)cccc1[N+](=O)[O-] [compound 598] | A (100)
CC(C)NC(=O)c1cccc(Cl)c1C(=O)Nc1ccc(Oc2ccc(C(F)(F)F)cc2Cl)cc1F [compound 904] | A (100)
CC(C)N(C)C(=O)c1ccccc1C(=O)Nc1ccc(C(F)(F)F)cc1 [compound 824] | A (100)
CC(C)NC(=O)c1c(C(=O)Nc2ccc(F)c(F)c2)cccc1[N+](=O)[O-] [compound 642] | A (100)
CC(C)NC(=O)c1c(C(=O)Nc2c(Cl)cc(C(F)(F)F)cc2Cl)cccc1[N+](=O)[O-] [compound 662] | A (100)
CC(C)NC(=O)c1c(C(=O)Nc2cccc(OC(C)C)c2)cccc1[N+](=O)[O-] [compound 615] | A (100)
CC(C)NC(=O)c1c(C(=O)Nc2cccc(Cl)c2)cccc1[N+](=O)[O-] [compound 587] | A (100)
CC(C)NC(=O)c1cccc(-c2ccccc2)c1C(=O)Nc1ccc(OC(F)(F)F)cc1 [compound 808] | A (100)
Cc1cc(C)c(NC(=O)c2cccc([N+](=O)[O-])c2C(=O)NC(C)C)c(C)c1 [compound 652] | A (100)
Cc1cc(Sc2ccc(Cl)cc2)ccc1NC(=O)c1c(I)cccc1C(=O)NC(C)C [compound 463] | A (100)
Cc1ccc(F)cc1NC(=O)c1cccc([N+](=O)[O-])c1C(=O)NC1CCC1 [compound 855] | A (100)
Cc1ccc(F)cc1NC(=O)c1cccc([N+](=O)[O-])c1C(=O)NCCCl [compound 861] | A (100)
CCc1ccc(F)cc1NC(=O)c1cccc([N+](=O)[O-])c1C(=O)NC(C)C [compound 677] | A (100)
Cc1cc(Oc2ncc(C(F)(F)F)cc2Cl)ccc1NC(=O)c1c(I)cccc1C(=O)NC(C)C [compound 461] | A (100)
CCCCNC(=O)c1c(C(=O)Nc2cc(Cl)ccc2C)cccc1[N+](=O)[O-] [compound 830] | C (89-80)
Cc1cc(Cl)ccc1N(C)C(=O)c1ccccc1C(=O)NC(C)C [compound 827] | A (100)
CSc1cccc(NC(=O)c2cccc([N+](=O)[O-])c2C(=O)NC(C)C)c1 [compound 621] | A (100)
CC(C)NC(=O)c1c(C(=O)Nc2cc(Cl)c(OC(F)F)c(Cl)c2)cccc1[N+](=O)[O-] [compound 659] | A (100)
Cc1cc(Cl)ccc1NC(=O)c1cccc(C#N)c1C(=O)NC(C)C [compound 744] | C (89-80)
CC(C)NC(=O)c1c(Cl)cccc1C(=O)Nc1ccc(C=C(Br)Br)cc1 [compound 913] | A (100)
Cc1cc(SC(C)C)ccc1NC(=O)c1c(I)cccc1C(=O)NC(C)C [compound 462] | A (100)
Cc1ccc([N+](=O)[O-])cc1NC(=O)c1cccc([N+](=O)[O-])c1C(=O)NC(C)C [compound 708] | D (79-50)
CC(C)NC(=O)c1cccc(F)c1C(=O)Nc1ccc(SCC(F)(F)F)cc1 [compound 539] | A (100)
CC(C)NC(=O)c1cccc(I)c1C(=O)Nc1ccc(OC(F)F)cc1C(F)(F)F [compound 465] | A (100)
CC(C)NC(=O)c1c(C(=O)Nc2ccc(Cl)c(C(F)(F)F)c2)cccc1[N+](=O)[O-] [compound 678] | A (100)
